Experimental data as given in US8563597B2, “Fused tricyclic ether carbamates and their use” (priority 2010, dated 2013).

Legend:
HIV-1 protease = HIV-1 protease (Human immunodeficiency virus type 1 group M subtype B, UniProt P04585); assay: Enzymatic inhibitory activity (Ki) against HIV-1 protease; assay type: biochemical
HIV-1LAI = assay: Antiviral activity against HIV-1LAI; assay type: cell-based; conditions: Human immunodeficiency virus 1
HIV-1MDR/C (X4) = assay: Antiviral activity against multi-drug resistant clinical isolates in PHA-PBMs (p24 Gag production); assay type: cell-based
From the text: (§1) Relative Antiviral activity of 33, and 34 against multi-drug resistant clinical isolates in PHA-PBMs

HIV-1MDR/B (X4) = assay: as above; assay type: cell-based
From the text: as §1

HIV-1MDR/G (X4) = assay: as above; assay type: cell-based
From the text: as §1

HIV-1MDR/JSL (R5) = assay: as above; assay type: cell-based
From the text: as §1

HIV-1MDR/MM (R5) = assay: as above; assay type: cell-based
From the text: as §1

HIV-1MDR/TM (X4) = assay: as above; assay type: cell-based
From the text: as §1

[1] = tested on: HIV-1ERS104pre (wild-type: X4); assay: Antiviral activity against clinical isolates in PHA-PBMs (p24 Gag production); assay type: cell-based
From the text: as §1

[2] = tested on: highly PI-resistant clinical HIV-1 variants; conditions: in vitro; result in words
Method: In another embodiment, novel oxatricyclic [3(R), 3aS, 4aS, 7aR, 8aS] and [3(R), 3aS, 4aR, 7aS, 8aS]-ligands were designed, synthesized, and incorporated into the (R)-hydroxyethyl sulfonamide isostere. […] The antiviral activity of 33 against a panel of highly PI-resistant clinical HIV-1 variants in vitro was measured.

COc1ccc(S(=O)(=O)N(CC(C)C)C[C@@H](O)[C@H](Cc2ccccc2)NC(=O)OC2CCCC3OC4OCCCC4C23)cc1 (stereo partly shown)
Ki (HIV-1 protease): < 1 nM

COc1ccc(S(=O)(=O)N(CC(C)C)C[C@@H](O)[C@H](Cc2ccccc2)NC(=O)O[C@H]2CCCC3O[C@H]4OCC[C@H]4C32)cc1 (stereo partly shown)
Ki (HIV-1 protease): < 0.1 nM
IC50 (HIV-1LAI): < 10 nM

COc1ccc(S(=O)(=O)N(CC(C)C)C[C@@H](O)[C@H](Cc2ccccc2)NC(=O)O[C@@H]2C[C@@H]3OC4OCCCC4[C@@H]3C2)cc1 (stereo partly shown)
Ki (HIV-1 protease): < 0.1 nM

CC(C)CN(C[C@@H](O)[C@H](Cc1ccccc1)NC(=O)O[C@H]1CO[C@H]2O[C@@H]3OCC[C@@H]3[C@H]21)S(=O)(=O)c1ccc(N)cc1
Ki (HIV-1 protease): < 0.1 nM

COc1ccc(S(=O)(=O)N(CC(C)C)C[C@@H](O)[C@H](Cc2ccccc2)NC(=O)OC2CS(=O)(=O)CC3OC4OCCC4C23)cc1 (stereo partly shown)
Ki (HIV-1 protease): < 1 nM

COc1ccc(S(=O)(=O)N(CC(C)C)C[C@@H](O)[C@H](Cc2ccccc2)NC(=O)OC2CS(=O)(=O)CC3OC4OCCCC4C23)cc1 (stereo partly shown)
Ki (HIV-1 protease): > 10 nM

CC(C)CN(C[C@@H](O)[C@H](Cc1ccccc1)NC(=O)O[C@@H]1C[C@@H]2[C@H]3COC[C@H]3O[C@@H]2C1)S(=O)(=O)c1ccc(N)cc1
Ki (HIV-1 protease): < 0.1 nM

CC(C)CN(C[C@@H](O)[C@H](Cc1ccccc1)NC(=O)O[C@H]1CO[C@H]2O[C@@H]3COC[C@@H]3[C@H]21)S(=O)(=O)c1ccc(N)cc1
Ki (HIV-1 protease): < 0.1 nM

COc1ccc(S(=O)(=O)N(CC(C)C)C[C@@H](O)[C@H](Cc2ccccc2)NC(=O)O[C@H]2CO[C@H]3O[C@@H]4CCO[C@@H]4[C@H]32)cc1
Ki (HIV-1 protease): < 0.1 nM

COc1ccc(S(=O)(=O)N(CC(C)C)C[C@@H](O)[C@H](Cc2ccccc2)NC(=O)O[C@H]2CO[C@H]3O[C@@H]4COC[C@@H]4[C@H]32)cc1
Ki (HIV-1 protease): < 0.1 nM

CC(C)CN(C[C@@H](O)[C@H](Cc1ccccc1)NC(=O)O[C@@H]1C[C@@H]2[C@H]3OCC[C@H]3O[C@@H]2C1)S(=O)(=O)c1ccc(N)cc1
Ki (HIV-1 protease): > 10 nM

CC(C)CN(C[C@@H](O)[C@H](Cc1ccccc1)NC(=O)O[C@H]1CO[C@H]2O[C@@H]3CCO[C@@H]3[C@H]21)S(=O)(=O)c1ccc(N)cc1
Ki (HIV-1 protease): < 0.1 nM

CC(C)CN(C[C@@H](O)[C@H](Cc1ccccc1)NC(=O)O[C@H]1CCOC1)S(=O)(=O)c1ccc(N)cc1 [APV, Amprenavir, reference compound]
fold changes of IC50 values compared to wild-type HIV-1ERS104pre (HIV-1MDR/C (X4)): 11 fold
fold changes of IC50 values compared to wild-type HIV-1ERS104pre (HIV-1MDR/B (X4)): 16 fold
fold changes of IC50 values compared to wild-type HIV-1ERS104pre (HIV-1MDR/G (X4)): 15 fold
fold changes of IC50 values compared to wild-type HIV-1ERS104pre (HIV-1MDR/JSL (R5)): 13 fold
fold changes of IC50 values compared to wild-type HIV-1ERS104pre (HIV-1MDR/MM (R5)): 9 fold
fold changes of IC50 values compared to wild-type HIV-1ERS104pre (HIV-1MDR/TM (X4)): 15 fold
fold changes of IC50 values compared to wild-type HIV-1ERS104pre [1]: 1 fold

CC(C)CN(C[C@@H](O)[C@H](Cc1ccccc1)NC(=O)O[C@H]1CO[C@H]2OCC[C@H]21)S(=O)(=O)c1ccc(N)cc1 [DRV, Darunavir, reference compound]
fold changes of IC50 values compared to wild-type HIV-1ERS104pre (HIV-1MDR/C (X4)): 2 fold
fold changes of IC50 values compared to wild-type HIV-1ERS104pre (HIV-1MDR/B (X4)): 6 fold
fold changes of IC50 values compared to wild-type HIV-1ERS104pre (HIV-1MDR/G (X4)): 6 fold
fold changes of IC50 values compared to wild-type HIV-1ERS104pre (HIV-1MDR/JSL (R5)): 5 fold
fold changes of IC50 values compared to wild-type HIV-1ERS104pre (HIV-1MDR/MM (R5)): 3 fold
fold changes of IC50 values compared to wild-type HIV-1ERS104pre (HIV-1MDR/TM (X4)): 6 fold
fold changes of IC50 values compared to wild-type HIV-1ERS104pre [1]: 1 fold

COc1ccc(S(=O)(=O)N(CC(C)C)C[C@@H](O)[C@H](Cc2ccccc2)NC(=O)O[C@H]2CO[C@H]3O[C@H]4OCC[C@H]4[C@H]32)cc1 [Inhibitor 31]
IC50 (HIV-1LAI): < 1000 nM

COc1ccc(S(=O)(=O)N(CC(C)C)C[C@@H](O)[C@H](Cc2ccccc2)NC(=O)O[C@@H]2CO[C@@H]3O[C@@H]4OCC[C@@H]4[C@@H]32)cc1 [Inhibitor 32]
IC50 (HIV-1LAI): < 10 nM

COc1ccc(S(=O)(=O)N(CC(C)C)C[C@@H](O)[C@H](Cc2ccccc2)NC(=O)O[C@H]2CO[C@H]3O[C@@H]4OCC[C@@H]4[C@H]32)cc1 [Inhibitor 33]
Ki (HIV-1 protease): < 0.1 nM
fold changes of IC50 values compared to wild-type HIV-1ERS104pre (HIV-1MDR/C (X4)): 2 fold
fold changes of IC50 values compared to wild-type HIV-1ERS104pre (HIV-1MDR/B (X4)): 7 fold
fold changes of IC50 values compared to wild-type HIV-1ERS104pre (HIV-1MDR/G (X4)): 5 fold
fold changes of IC50 values compared to wild-type HIV-1ERS104pre (HIV-1MDR/JSL (R5)): 5 fold
fold changes of IC50 values compared to wild-type HIV-1ERS104pre (HIV-1MDR/MM (R5)): 5 fold
fold changes of IC50 values compared to wild-type HIV-1ERS104pre (HIV-1MDR/TM (X4)): 4 fold
IC50 (HIV-1LAI): < 10 nM
antiviral activity against a panel of highly PI-resistant clinical HIV-1 variants [2]: effectively suppressed all tested clinical HIV-1 variants
fold changes of IC50 values compared to wild-type HIV-1ERS104pre [1]: 1 fold

COc1ccc(S(=O)(=O)N(CC(C)C)C[C@@H](O)[C@H](Cc2ccccc2)NC(=O)O[C@@H]2CO[C@@H]3O[C@H]4OCC[C@H]4[C@@H]32)cc1 [Inhibitor 34]
Ki (HIV-1 protease): < 10 nM
fold changes of IC50 values compared to wild-type HIV-1ERS104pre (HIV-1MDR/C (X4)): 1 fold
fold changes of IC50 values compared to wild-type HIV-1ERS104pre (HIV-1MDR/B (X4)): 2 fold
fold changes of IC50 values compared to wild-type HIV-1ERS104pre (HIV-1MDR/G (X4)): 2 fold
fold changes of IC50 values compared to wild-type HIV-1ERS104pre (HIV-1MDR/JSL (R5)): >2 fold
fold changes of IC50 values compared to wild-type HIV-1ERS104pre (HIV-1MDR/MM (R5)): 2 fold
fold changes of IC50 values compared to wild-type HIV-1ERS104pre (HIV-1MDR/TM (X4)): 2 fold
IC50 (HIV-1LAI): < 1000 nM
fold changes of IC50 values compared to wild-type HIV-1ERS104pre [1]: 1 fold

COc1ccc(S(=O)(=O)N(CC(C)C)C[C@@H](O)[C@H](Cc2ccccc2)NC(=O)O[C@H]2CO[C@H]3C[C@H]4OCC[C@H]4[C@H]32)cc1 [Inhibitor 35]
Ki (HIV-1 protease): < 10 nM
IC50 (HIV-1LAI): < 1000 nM

COc1ccc(S(=O)(=O)N(CC(C)C)C[C@@H](O)[C@H](Cc2ccccc2)NC(=O)O[C@H]2CO[C@H]3C[C@@H]4OCC[C@@H]4[C@H]32)cc1 [Inhibitor 36]
Ki (HIV-1 protease): < 10 nM
IC50 (HIV-1LAI): > 1000 nM
